Results: article PMC3234597, “Two Panels of Steroid Receptor Luciferase Reporter Cell Lines for Compound Profiling” (Combinatorial Chemistry & High Throughput Screening, 2011)
Entries after “also recorded” stand apart in the source; their conditions may differ. Like-named read-outs stand apart in the source and are kept apart here.

Key:
Type in all cases: cell-based
human GR (full-length) = biological target: T1, human GR (full-length) (Homo sapiens, UniProt P04150); assay: U2OS-GR/MMTV luciferase reporter cell line (full-length receptor); settings: for Log EC50: agonist mode, 20 h, log10 of molar EC50, mean ± SEM; for Log EC50 / Log IC50: GR/MMTV; for Log IC50: antagonist mode, in the presence of 5 nM dexamethasone, log10 of molar IC50, mean ± SEM
T1 construct: expression vectors encoding full-length steroid receptors: pcDNA3-hAR and pcDNA3-hGR; host or cells: U2OS
T1 sequence (P04150 1-777): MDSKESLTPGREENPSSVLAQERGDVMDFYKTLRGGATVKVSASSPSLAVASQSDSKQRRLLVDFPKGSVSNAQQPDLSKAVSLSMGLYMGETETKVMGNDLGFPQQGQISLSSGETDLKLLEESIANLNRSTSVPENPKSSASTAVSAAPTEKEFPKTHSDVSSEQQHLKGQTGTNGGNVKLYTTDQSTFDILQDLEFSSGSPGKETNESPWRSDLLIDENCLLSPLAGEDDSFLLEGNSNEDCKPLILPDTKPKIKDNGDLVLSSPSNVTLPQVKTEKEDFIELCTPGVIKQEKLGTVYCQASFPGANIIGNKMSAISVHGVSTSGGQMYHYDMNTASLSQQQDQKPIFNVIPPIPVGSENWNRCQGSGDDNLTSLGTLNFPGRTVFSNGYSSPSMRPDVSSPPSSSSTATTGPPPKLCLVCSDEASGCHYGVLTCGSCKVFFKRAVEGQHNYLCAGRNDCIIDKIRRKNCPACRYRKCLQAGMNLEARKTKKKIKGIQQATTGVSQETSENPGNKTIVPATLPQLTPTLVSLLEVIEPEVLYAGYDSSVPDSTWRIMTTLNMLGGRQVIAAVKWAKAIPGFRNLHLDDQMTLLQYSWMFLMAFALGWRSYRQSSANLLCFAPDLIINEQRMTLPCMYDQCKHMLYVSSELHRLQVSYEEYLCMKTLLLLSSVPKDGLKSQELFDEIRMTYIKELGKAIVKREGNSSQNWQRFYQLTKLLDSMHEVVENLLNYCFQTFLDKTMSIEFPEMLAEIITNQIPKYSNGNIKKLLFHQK

PR-LBD fused to Gal4-DBD = biological target: T2, PR-LBD fused to Gal4-DBD (Homo sapiens, UniProt P06401); assay: U2OS-PR-LBD/9xGal4UAS luciferase reporter cell line; settings: for Log EC50: agonist mode, 20 h, log10 of molar EC50, mean ± SEM
T2 construct: PR-LBD region was PCR amplified using the following primer combination; host or cells: U2OS
T2 sequence (P06401 679-913 limits assumed): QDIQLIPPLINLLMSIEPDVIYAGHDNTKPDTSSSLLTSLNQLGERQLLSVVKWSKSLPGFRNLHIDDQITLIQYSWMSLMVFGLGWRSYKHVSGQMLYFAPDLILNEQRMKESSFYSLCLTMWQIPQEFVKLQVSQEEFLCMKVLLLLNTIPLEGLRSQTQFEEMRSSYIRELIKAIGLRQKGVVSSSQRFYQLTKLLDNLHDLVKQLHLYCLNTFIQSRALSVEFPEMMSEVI

MR-LBD fused to Gal4-DBD = biological target: T3, MR-LBD fused to Gal4-DBD (Homo sapiens, UniProt P08235); assay: U2OS-MR-LBD/9xGal4UAS luciferase reporter cell line; settings: for Log EC50: agonist mode, 20 h, log10 of molar EC50, mean ± SEM; for Log EC50 / Log IC50: MR-LBD/9xGal4UAS; for Log IC50: antagonist mode, in the presence of 1 nM aldosterone, log10 of molar IC50, mean ± SEM
T3 construct: MR-LBD was cloned by RT-PCR from total RNA isolated from HEK293 cells; expressed in transfected cells; host or cells: U2OS
T3 sequence (P08235 726-964 limits assumed): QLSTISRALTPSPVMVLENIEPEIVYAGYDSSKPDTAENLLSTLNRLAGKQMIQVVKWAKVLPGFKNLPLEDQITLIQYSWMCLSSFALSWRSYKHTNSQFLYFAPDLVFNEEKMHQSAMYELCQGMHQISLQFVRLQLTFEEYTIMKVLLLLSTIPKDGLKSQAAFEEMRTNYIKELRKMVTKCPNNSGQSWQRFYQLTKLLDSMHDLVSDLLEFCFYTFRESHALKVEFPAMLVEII

human MR (full-length) = biological target: T4, human MR (full-length) (Homo sapiens, UniProt P08235); assay: U2OS-MR/MMTV luciferase reporter cell line (full-length receptor); settings: for Log EC50: agonist mode, 20 h, log10 of molar EC50, mean ± SEM; for Log EC50 / Log IC50: MR/MMTV; for Log IC50: in the presence of 1 nM aldosterone, log10 of molar IC50, mean ± SEM
T4 construct: expression vectors encoding full-length steroid receptors: pcDNA3-hAR, pcDNA3-hGR and pcDNA3-hMR; expressed in transfected cells; host or cells: U2OS
T4 sequence (P08235 1-984): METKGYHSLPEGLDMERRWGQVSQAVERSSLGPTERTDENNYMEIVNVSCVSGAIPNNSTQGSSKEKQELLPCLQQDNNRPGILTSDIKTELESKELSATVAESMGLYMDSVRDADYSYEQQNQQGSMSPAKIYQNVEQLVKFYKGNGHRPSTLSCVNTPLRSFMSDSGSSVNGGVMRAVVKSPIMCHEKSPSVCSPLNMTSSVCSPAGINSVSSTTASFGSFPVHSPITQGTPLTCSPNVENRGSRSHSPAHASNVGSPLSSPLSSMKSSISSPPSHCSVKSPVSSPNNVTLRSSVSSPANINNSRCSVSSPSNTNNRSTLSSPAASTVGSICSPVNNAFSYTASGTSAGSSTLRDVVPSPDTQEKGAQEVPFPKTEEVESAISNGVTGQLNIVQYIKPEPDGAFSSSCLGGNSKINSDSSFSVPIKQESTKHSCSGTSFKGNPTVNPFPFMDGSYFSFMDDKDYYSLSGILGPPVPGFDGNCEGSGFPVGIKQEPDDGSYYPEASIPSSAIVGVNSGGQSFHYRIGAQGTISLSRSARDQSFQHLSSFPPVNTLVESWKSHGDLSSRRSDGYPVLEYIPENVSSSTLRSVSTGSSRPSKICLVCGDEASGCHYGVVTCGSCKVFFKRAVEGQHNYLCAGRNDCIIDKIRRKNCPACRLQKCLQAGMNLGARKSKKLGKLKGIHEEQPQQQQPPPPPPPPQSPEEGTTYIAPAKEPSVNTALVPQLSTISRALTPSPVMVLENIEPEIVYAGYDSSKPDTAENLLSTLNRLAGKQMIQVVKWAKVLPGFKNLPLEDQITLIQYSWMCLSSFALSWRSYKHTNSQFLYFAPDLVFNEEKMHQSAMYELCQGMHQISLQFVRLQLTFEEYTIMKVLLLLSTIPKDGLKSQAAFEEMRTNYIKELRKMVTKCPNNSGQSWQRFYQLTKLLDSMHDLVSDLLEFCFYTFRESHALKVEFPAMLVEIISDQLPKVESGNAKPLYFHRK

GR-LBD fused to Gal4-DBD = biological target: T5, GR-LBD fused to Gal4-DBD (Homo sapiens, UniProt P04150); assay: U2OS-GR-LBD/9xGal4UAS luciferase reporter cell line; settings: for Log EC50: agonist mode, 20 h, log10 of molar EC50, mean ± SEM; for Log EC50 / Log IC50: GR-LBD/9xGal4UAS; for Log IC50: antagonist mode, in the presence of 5 nM dexamethasone, log10 of molar IC50, mean ± SEM
T5 construct: expressed in transfected cells; host or cells: U2OS
T5 sequence (P04150 524-758 limits assumed): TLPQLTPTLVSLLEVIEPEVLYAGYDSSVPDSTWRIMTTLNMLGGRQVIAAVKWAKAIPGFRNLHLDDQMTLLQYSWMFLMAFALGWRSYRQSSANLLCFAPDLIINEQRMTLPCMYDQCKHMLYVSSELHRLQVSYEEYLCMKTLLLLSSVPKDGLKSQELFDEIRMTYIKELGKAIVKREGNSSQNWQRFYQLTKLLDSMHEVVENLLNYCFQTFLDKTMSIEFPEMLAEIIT

[1] = antagonist mode, PR-LBD/9xGal4UAS, log10 of molar IC50, mean ± SEM, read-out: Log IC50 (converted)
[2] = antagonist mode, PR-LBD/9xGal4UAS, log10 of molar IC50, mean ± SEM

SMILES | EC50 (human GR (full-length); read-out: Log EC50 (converted)) | IC50 (PR-LBD fused to Gal4-DBD; [1]) | EC50 (PR-LBD fused to Gal4-DBD; read-out: Log EC50 (converted)) | EC50 (MR-LBD fused to Gal4-DBD; read-out: Log EC50 (converted)) | EC50 (human MR (full-length); read-out: Log EC50 (converted)) | EC50 (GR-LBD fused to Gal4-DBD; read-out: Log EC50 (converted)) | Log EC50 (PR-LBD fused to Gal4-DBD; PR-LBD/9xGal4UAS) | Log IC50 (PR-LBD fused to Gal4-DBD; [2]) | Log EC50 (MR-LBD fused to Gal4-DBD) | Log IC50 (MR-LBD fused to Gal4-DBD) | Log EC50 (human MR (full-length)) | Log IC50 (human MR (full-length); antagonist mode) | also measured
CCCc1c(-c2ccc(O)cc2)nn(-c2ccc(O)cc2)c1-c1ccc(O)cc1 [PPT, propyl pyrazole triol] | > 10000 nM | > 10000 nM | 4270 nM | > 10000 nM | > 10000 nM | > 10000 nM | – | – | – | – | – | – | –
C[C@]12CC[C@@H]3c4ccc(O)cc4C[C@@H](CCCCCCCCC[S+]([O-])CCCC(F)(F)C(F)(F)F)[C@H]3[C@@H]1CC[C@@H]2O (some centres unmarked) [ICI 182.780] | – | – | – | – | – | – | > -5.00 M | > -5.00 M | > -5.00 M | > -5.00 M | > -5.00 M | > -5.00 M | Log EC50 (human GR (full-length)): > -5.00 M; Log IC50 (human GR (full-length)): > -5.00 M; Log EC50 (GR-LBD fused to Gal4-DBD): > -5.00 M; Log IC50 (GR-LBD fused to Gal4-DBD): > -5.00 M
C#C[C@]1(O)CC[C@H]2[C@@H]3CCC4=Cc5oncc5C[C@]4(C)[C@H]3CC[C@@]21C [Danazol, danazol] | > 10000 nM | 692 nM | 91.2 nM | > 10000 nM | > 10000 nM | > 10000 nM | – | – | – | – | – | – | –
C[C@H]1C[C@H]2[C@@H]3CCC4=CC(=O)C=C[C@]4(C)[C@@]3(Cl)[C@@H](O)C[C@]2(C)[C@@]1(O)C(=O)CO [Beclomethasone, beclomethasone] | – | – | – | – | – | – | -5.20 ± 0.05 M | > -5.00 M | -7.95 ± 0.10 M | -7.64 ± 0.10 M | -7.97 ± 0.12 M | > -5.00 M | activity profile in words (MR-LBD fused to Gal4-DBD; MR-LBD expressing reporter cell line, agonist and antagonist mode): only weakly and partially activated; also recorded: pronounced full antagonist effect; activity profile in words (human MR (full-length); full-length MR format, antagonist mode): no sign of antagonistic activity
C[C@]12C[C@H](O)[C@H]3[C@@H](CCC4=CC(=O)CC[C@@]43C)[C@@H]1CC[C@@H]2C(=O)CO [Corticosterone, corticosterone] | 26.9 nM | > 10000 nM | 72.4 nM | 0.0263 nM | 0.0813 nM | 269 nM | – | – | – | – | – | – | –
C[C@]12CCC(=O)C=C1CC[C@@H]1[C@@H]2[C@@H](O)C[C@]2(C=O)[C@@H](C(=O)CO)CC[C@@H]12 [Aldosterone, aldosterone] | 209 nM | 3720 nM | 1120 nM | – | – | 1150 nM | – | – | – | – | – | – | –
CC[C@@H]1Cc2cc(O)ccc2C2=C1c1ccc(O)cc1C[C@H]2CC (relative stereo) [R.R-THC, (R,R)-cis-diethyltetrahydro-2,8-chrysenediol] | – | – | – | – | – | – | > -5.00 M | -5.52 ± 0.70 M | > -5.00 M | -5.08 ± 0.13 M | > -5.40 M | -5.45 ± 0.22 M | Log EC50 (human GR (full-length)): > -5.00 M; Log IC50 (human GR (full-length)): > -5.00 M; Log EC50 (GR-LBD fused to Gal4-DBD): > -5.00 M; Log IC50 (GR-LBD fused to Gal4-DBD): > -5.00 M
CCC(=O)[C@@]1(C)CC[C@H]2[C@@H]3CCC4=CC(=O)CCC4=C3CC[C@@]21C [Promegestone (R5020), promegestone] | > 10000 nM | > 10000 nM | 0.0129 nM | > 10000 nM | > 10000 nM | > 10000 nM | – | – | – | – | – | – | –
C[C@]12C=CC(=O)C=C1CC[C@H]1[C@@H]3C[C@@H](O)[C@](O)(C(=O)CO)[C@@]3(C)C[C@H](O)[C@@]12F [Triamcinolone, triamcinolone] | 12.9 nM | > 10000 nM | 58.9 nM | 75.9 nM | 186 nM | 10.2 nM | – | – | – | – | – | – | –
O=c1c(-c2ccc(O)cc2)coc2cc(O)cc(O)c12 [Genistein, genistein] | – | – | – | – | – | – | – | – | – | – | – | – | EC50 (human GR (full-length)): > 10000 nM; EC50 (PR-LBD fused to Gal4-DBD): > 10000 nM; IC50 (PR-LBD fused to Gal4-DBD): > 10000 nM; EC50 (MR-LBD fused to Gal4-DBD): > 10000 nM; EC50 (human MR (full-length)): > 10000 nM; EC50 (GR-LBD fused to Gal4-DBD): > 10000 nM
